Assay results from EP4104902B1, “COMPOUNDS AND M[…] SAME” (priority 2020, dated 2021).

test system: recombinant rabies virus 1088 strain expressing Gaussia Luciferase (GLuc) (1088/GLuc); type: cell-based; settings: read-out: Anti-rabies activity

Structure (SMILES) | IC50 [µM]
CC(C)CNC(=O)[C@@]12C[C@@H]3CN(Cc4ccccc4)[C@@H]([C@@H]3CN1)[C@H]2CCc1ccccc1 (relative stereo) [IF-670] | < 5
CC(C)CC[C@@H]1[C@@H]2CN[C@@]3(C(=O)NCCCNC(=N)N)[C@@H](C2)CN(Cc2ccc(F)cc2)[C@@H]13 (relative stereo) [IB-369] | 10 to 30
Cc1ccc(CN2CC3CC4C=NC3(C(=O)NCc3ccccc3)C2C4CC(C)C)cc1 (centres unmarked) [IIB-86] | 5 to 10
CC(C)C[C@@H]1[C@@H]2[C@@H]3CN[C@@]1(C(=O)NCc1ccc(C(F)(F)F)cc1)C[C@@H]3CN2Cc1ccccc1 (relative stereo) [IF-838] | 10 to 30
CC(C)C[C@@H]1[C@@H]2CN[C@@]3(C(=O)NCc4ccccc4)[C@@H](C2)CN(CCc2ccccc2)[C@@H]13 (relative stereo) [IB-757] | < 5
CC(C)CCN1C[C@@H]2C[C@H]3CN[C@]2(C(=O)NCCC(=O)O)[C@@H]1[C@@H]3Cc1cccc2ccccc12 (relative stereo) [IB-381] | 10 to 30
O=C(NCc1ccccc1)[C@@]12C[C@@H]3CN(CC4CCCCC4)[C@@H]([C@@H]3CN1)[C@H]2Cc1ccc(O)cc1 (relative stereo) [IF-645] | 10 to 30
O=C(O)CCNC(=O)[C@]12NC[C@@H]3C[C@H]1CN(CCO)[C@H]2[C@@H]3Cc1cccc2ccccc12 (relative stereo) [IB-610] | 10 to 30
CC(C)C[C@@H]1[C@@H]2[C@@H]3CN[C@@]1(C(=O)NCc1ccc(O)cc1)C[C@@H]3CN2CC1CCCCC1 (relative stereo) [IF-478] | < 5
CCCCCCNC(=O)[C@@]12C[C@@H]3CN(Cc4ccccc4)[C@@H]([C@@H]3CN1)[C@H]2CC(C)C (relative stereo) [IF-560] | < 5
N=C(N)NCCC[C@@H]1[C@@H]2CN[C@@]3(C(=O)NCCc4ccccc4)[C@@H](C2)CN(Cc2ccc(F)cc2)[C@@H]13 (relative stereo) [IB-262] | 10 to 30
NC(=O)CN1CC2CC3(C(=O)NCc4cccc5ccccc45)NCC2C1C3Cc1cccc2ccccc12 (centres unmarked) [IF-91] | < 5
CC(C)CC[C@@H]1[C@@H]2CN[C@@]3(C(=O)NCc4cccc5ccccc45)[C@@H](C2)CN(CC(N)=O)[C@@H]13 (relative stereo) [IB-84] | 10 to 30
N=C(N)NCCC[C@@H]1[C@@H]2CN[C@@]3(C(=O)NCc4ccccc4)[C@@H](C2)CN(Cc2ccc(F)cc2)[C@@H]13 (relative stereo) [IB-260] | 10 to 30
CC(C)CNC(=O)[C@]12NC[C@@H]3C[C@H]1CN(CC(C)C)[C@H]2[C@@H]3Cc1ccccc1 (relative stereo) [IB-3] | 10 to 30
CC(C)C[C@@H]1[C@@H]2[C@@H]3CN[C@@]1(C(=O)NCc1ccccc1)C[C@@H]3CN2CC1CCCCC1 (relative stereo) [IF-644] | < 5
CC(C)CN1CC2CC3CNC2(C(=O)NCc2ccc(F)cc2)C1C3Cc1ccc(O)cc1 (centres unmarked) [IB-498] | < 5
CC(C)C[C@@H]1[C@@H]2[C@@H]3CN[C@@]1(C(=O)NCCC(N)=O)C[C@@H]3CN2CCc1ccccc1 (relative stereo) [IF-699] | 10 to 30
NC(=O)CN1CC2CC3CNC2(C(=O)NCc2ccccc2)C1C3CCc1ccccc1 (centres unmarked) [IB-130] | 10 to 30
O=C(O)CCNC(=O)[C@]12NC[C@@H]3C[C@H]1CN(Cc1ccccc1)[C@H]2[C@@H]3Cc1cccc2ccccc12 (relative stereo) [IB-616] | 10 to 30
O=C(NCCO)[C@@]12C[C@@H]3CN(CCc4ccccc4)[C@@H]([C@@H]3CN1)[C@H]2Cc1cccc2ccccc12 (relative stereo) [IF-612] | 10 to 30

Structure (SMILES) | IC50 [µM]
CC(C)CCNC(=O)[C@@]12C[C@@H]3CN(Cc4ccc(O)cc4)[C@@H]([C@@H]3CN1)[C@H]2Cc1cccc2ccccc12 (relative stereo) [IF-684] | 10 to 30
CCCCCCNC(=O)C12NCC3CC1CN(CC(N)=O)C2C3CCC(C)C (centres unmarked) [IB-108] | 10 to 30
CC(C)CNC(=O)C12CC3CN(Cc4cccc5ccccc45)C(C3CN1)C2CC(N)=O (centres unmarked) [IF-226] | 10 to 30
CC(C)CC[C@@H]1[C@@H]2CN[C@@]3(C(=O)NCCc4ccccc4)[C@@H](C2)CN(CC(N)=O)[C@@H]13 (relative stereo) [IB-89] | < 5
Cc1ccc(CN2CC3CC4CN(C(N)=O)C3(C(=O)NCc3ccccc3)C2C4CC(C)C)cc1 (centres unmarked) [IB-888] | 10 to 30
O=C(NCCO)[C@]12NC[C@@H]3C[C@H]1CN(Cc1cccc4ccccc14)[C@H]2[C@@H]3Cc1ccccc1 (relative stereo) [IB-588] | < 5
CC(C)CC[C@@H]1[C@@H]2[C@@H]3CN[C@@]1(C(=O)NCCC(N)=O)C[C@@H]3CN2Cc1cccc2ccccc12 (relative stereo) [IF-384] | 10 to 30
O=C(NCCO)[C@]12NC[C@@H]3C[C@H]1CN(Cc1ccc(F)cc1)[C@H]2[C@@H]3Cc1ccccc1 (relative stereo) [IB-649] | 10 to 30
CC(C)CCNC(=O)[C@]12NC[C@@H]3C[C@H]1CN(CC(N)=O)[C@H]2[C@@H]3CCc1ccccc1 (relative stereo) [IB-102] | < 5
CCCCCCNC(=O)C12NCC3CC1CN(CCO)C2C3Cc1ccc(O)cc1 (centres unmarked) [IB-478] | 10 to 30
O=C(NCc1ccc(F)cc1)[C@@]12C[C@@H]3CN(CCO)[C@@H]([C@@H]3CN1)[C@H]2Cc1ccccc1 (relative stereo) [IF-508] | 10 to 30
CC(C)CC[C@@H]1[C@@H]2CN[C@@]3(C(=O)NCCC(N)=O)[C@@H](C2)CN(Cc2ccc(F)cc2)[C@@H]13 (relative stereo) [IB-365] | 10 to 30
CC(C)CC1C2CNC3(C(=O)NCc4cccc5ccccc45)C(C2)CN(CCC(=O)O)C13 (centres unmarked) [IB-392] | 10 to 30
CCCCCCNC(=O)[C@@]12C[C@@H]3CN(CC4CCCCC4)[C@@H]([C@@H]3CN1)[C@H]2Cc1ccc(O)cc1 (relative stereo) [IF-514] | < 5
CC(C)CCN1C[C@@H]2C[C@H]3CN[C@]2(C(=O)NCCC(=O)O)[C@@H]1[C@@H]3CC(C)C (relative stereo) [IB-611] | 10 to 30
CC(C)CC[C@@H]1[C@@H]2[C@@H]3CN[C@@]1(C(=O)NCc1ccc(O)cc1)C[C@@H]3CN2Cc1ccccc1 (relative stereo) [IF-493] | < 5
O=C(NCCO)[C@]12NC[C@@H]3C[C@H]1CN(Cc1ccccc1)[C@H]2[C@@H]3Cc1cccc2ccccc12 (relative stereo) [IB-602] | 10 to 30
CC(C)CC[C@@H]1[C@@H]2CN[C@@]3(C(=O)NCCC(N)=O)[C@@H](C2)CN(Cc2ccccc2)[C@@H]13 (relative stereo) [IB-274] | 10 to 30
CC(C)C[C@@H]1[C@@H]2[C@@H]3CN[C@@]1(C(=O)NCc1ccc(Cl)c(Cl)c1)C[C@@H]3CN2Cc1ccccc1 (relative stereo) [IF-20] | 10 to 30
CC(C)CNC(=O)[C@]12NC[C@@H]3C[C@H]1CN(CCC(=O)O)[C@H]2[C@@H]3CCc1ccccc1 (relative stereo) [IB-430] | < 5
CCCCCCNC(=O)[C@]12NC[C@@H]3C[C@H]1CN(CC(N)=O)[C@H]2[C@@H]3Cc1ccccc1 (relative stereo) [IB-105] | 10 to 30

Structure (SMILES) | IC50 [µM]
O=C(NCCO)[C@@]12C[C@@H]3CN(CC4CCCCC4)[C@@H]([C@@H]3CN1)[C@H]2Cc1cccc2ccccc12 (relative stereo) [IF-619] | 10 to 30
O=C(NCCO)[C@@]12C[C@@H]3CN(Cc4cccc5ccccc45)[C@@H]([C@@H]3CN1)[C@H]2Cc1ccccc1 (relative stereo) [IF-603] | 10 to 30
CC(C)C[C@@H]1[C@@H]2[C@@H]3CN[C@@]1(C(=O)NCc1cccc4ccccc14)C[C@@H]3CN2Cc1ccccc1 (relative stereo) [IF-837] | 5 to 10
NC(=O)CCNC(=O)[C@]12NC[C@@H]3C[C@H]1CN(CC1CCCCC1)[C@H]2[C@@H]3Cc1cccc2ccccc12 (relative stereo) [IB-522] | 10 to 30
NC(=O)CCNC(=O)[C@]12NC[C@@H]3C[C@H]1CN(Cc1ccc(F)cc1)[C@H]2[C@@H]3Cc1cccc2ccccc12 (relative stereo) [IB-525] | 10 to 30
CC(C)CC[C@@H]1[C@@H]2CN[C@@]3(C(=O)NCCC(=O)O)[C@@H](C2)CN(CC2CCCCC2)[C@@H]13 (relative stereo) [IB-613] | 10 to 30
O=C(NCc1ccc(O)cc1)[C@@]12C[C@@H]3CN(CC4CCCCC4)[C@@H]([C@@H]3CN1)[C@H]2CCc1ccccc1 (relative stereo) [IF-475] | 10 to 30
Cc1cccc(CNC(=O)[C@]23NC[C@@H]4C[C@H]2CN(CC(C)C)[C@H]3[C@@H]4Cc2ccccc2)c1 (relative stereo) [IB-15] | 10 to 30
CC(C)CCNC(=O)C12NCC3CC1CN(CCO)C2C3Cc1ccccc1 (centres unmarked) [IB-714] | < 5
NC(=O)CCNC(=O)C12NCC3CC1CN(CCc1ccccc1)C2C3Cc1ccccc1 (centres unmarked) [IB-707] | < 5
CC(C)C[C@@H]1[C@@H]2[C@@H]3CN[C@@]1(C(=O)NCc1cccc4ccccc14)C[C@@H]3CN2Cc1ccc(O)cc1 (relative stereo) [IF-578] | < 5
CC(C)CCN1CC2CC3(C(=O)NCc4ccc(O)cc4)NCC2C1C3CCC(=O)O (centres unmarked) [IF-445] | 10 to 30
CC(C)CCN1CC2CC3(C(=O)NCCC(=O)O)NCC2C1C3CCc1ccccc1 (centres unmarked) [IF-830] | 10 to 30
CC(C)CCNC(=O)C12NCC3CC1CN(CCO)C2C3Cc1cccc2ccccc12 (centres unmarked) [IB-727] | < 5
O=C(NCc1cccc2ccccc12)C12NCC3CC1CN(Cc1cccc4ccccc14)C2C3CCc1ccccc1 (centres unmarked) [IB-804] | < 5
CC(C)CNC(=O)[C@]12NC[C@@H]3C[C@H]1CN(CCc1ccccc1)[C@H]2[C@@H]3CC(C)C (relative stereo) [IB-760] | < 5
O=C(NCCc1ccccc1)[C@@]12C[C@@H]3CN(Cc4cccc5ccccc45)[C@@H]([C@@H]3CN1)[C@H]2Cc1ccc(O)cc1 (relative stereo) [IF-708] | < 5
CC(C)CCC1C2CNC3(C(=O)NCc4ccccc4)C(C2)CN(CC(C)C)C13 (centres unmarked) [IB-875] | 10 to 30
NC(=O)CN1C[C@H]2C[C@]3(C(=O)NCc4ccc(F)cc4)NC[C@H]2[C@H]1[C@H]3Cc1cccc2ccccc12 (relative stereo) [IF-97] | 10 to 30
CC(C)CCN1C[C@H]2C[C@]3(C(=O)NCCC(=O)O)NC[C@H]2[C@H]1[C@H]3Cc1cccc2ccccc12 (relative stereo) [IF-413] | 10 to 30

same assay, conditions: read-out: IC50

Structure (SMILES) | IC50 [µM]
CC(C)CNC(=O)[C@]12NC[C@@H]3C[C@H]1CN(CC(C)C)[C@H]2[C@@H]3Cc1ccccc1 (relative stereo) [IB-3] | 19.6
CC(C)C[C@@H]1[C@@H]2[C@@H]3CN[C@@]1(C(=O)NCc1ccc(Cl)c(Cl)c1)C[C@@H]3CN2Cc1ccccc1 (relative stereo) [IF-20] | 11.6
Cc1cccc(CNC(=O)[C@]23NC[C@@H]4C[C@H]2CN(CC(C)C)[C@H]3[C@@H]4Cc2ccccc2)c1 (relative stereo) [IB-15] | 15.9
